In US8901086B2, “Compositions including triciribine and methods of use thereof” (University of South Florida, priority 2004, dated 2014):

Columns and labels:
[1] = target: PKCα (Homo sapiens, UniProt P17252); assay: PKCα activity, kinase assay and immunoblot; assay type: cell-based
Description: The immunoblots were detected with indicated antibodies. […] The kinase activity was quantified.

[2] = tested on: H929 cells and U266 cells; assay: Survival of multiple myeloma derived cells; assay type: cell-based
[3] = tested on: MCF7 cells; assay: Western blot of Akt pathway after mTOR inhibitor; assay type: cell-based; settings: 24 hour time course
Description: The upper panels (A) show western blots of OV3 cell lysates following the treatment with 1 nM mTOR inhibitor rapamycin for the time indicated. Membranes were probed with antibodies specific to phosphorylated isoforms and to the total protein for comparison of Akt, p70S6K and FKHRL 1. The lower panels (B) illustrate western blots of MCF7 cell lysates following treatment with the mTOR inhibitor RAD001 for the time indicated. Membranes were probed with antibodies specific to phosphorylated isoforms and to the total protein for comparison of Akt and p70S6K.
OV3 and MCF7 cells were treated with the mTOR inhibitors rapamycin and RAD001, respectively, over a 24 hour time course. Lysyates were resolved by SDS-PAGE and transferred to a membrane for western blotting. Membranes were probed with antibodies to phospho-Akt, total Akt, phospho-p70S6K, and total p70S6K. Membranes with lysates derived from OV3 cells were additionally probed with antibodies to phospho-FKHRL 1 and total FKHRL 1.

[4] = tested on: Akt; assay type: cell-based, human; settings: 2 hours; trastuzumab 2 μg/ml, triciribine 2.5 μM, RAD001 0.4 nM
Description: Total cell lysates were collected, separated by SDS-PAGE and immunoblotted as indicated.
(§1) SDS-PAGE and Immunoblot Analysis. Cells transfected with PTEN AS/NS oligonucleotides were treated as indicated.
(§2) Phosphorylation of Akt on Thr308 and Ser473 was analyzed as an indicator of Akt activity and mTOR activity was assessed by the phosphorylation of p70S6K (70-kDa ribosomal protein S6 kinase), an mTOR target.

[5] = tested on: p70S6K; assay type: cell-based, human; settings: 2 hours; trastuzumab 2 μg/ml, RAD001 0.4 nM
Description: Total cell lysates were collected, separated by SDS-PAGE and immunoblotted as indicated. […] The experiments were repeated at least twice to insure that results were reproducible.
as §1, §2

## Cn1cc(C2=C(c3cn(CCCSC(=N)N)c4ccccc34)C(=O)NC2=O)c2ccccc21 [Ro 31-8220]
[1]
  kinase activity of PKCα: inhibited

## CC(C)C[C@H](NC(=O)[C@H](Cc1ccccc1)NC(=O)c1cnccn1)B(O)O [bortezomib]
[2]
  effect of API-2 on survival of myeloma cells: synergistically enhances

## CO[C@H]1C[C@@H]2CC[C@@H](C)[C@@](O)(O2)C(=O)C(=O)N2CCCC[C@H]2C(=O)O[C@H]([C@H](C)C[C@@H]2CC[C@@H](OCCO)[C@H](OC)C2)CC(=O)[C@H](C)/C=C(\C)[C@@H](O)[C@@H](OC)C(=O)[C@H](C)C[C@H](C)/C=C/C=C/C=C/1C [RAD001, everolimus]
[3]
  activation of Akt pathway: rapid activation of Akt pathway
[4]
  phosphorylation of Akt on Thr308 and Ser473: feedback activation of Akt
[5]
  phosphorylation of p70S6K: dramatically blocked
